Data from ChEMBL document CHEMBL1212719, “In vivo effects of a GPR30 antagonist” (Nat Chem Biol, 2009).
Activity calls are given as the source filed them. The calls are words filed in the database; no cut-off is given here.

Columns and labels:
Mus musculus [1] = experiment: Effect on uterine weight in ovariectomized C57B16 mouse at 2.4 to 27 nM, sc; format: functional, organism-based; details: Uterus
Mus musculus [2] = experiment: Inhibition of GPR30-mediated epithelial uterine cell proliferation in ovariectomized C57B16 mouse at 2.4 to 27 nM, sc relative to control; format: functional, organism-based; details: Uterine epithelium
Mus musculus [3] = experiment: Inhibition of estrogen-induced GPR30-mediated epithelial uterine cell proliferation in sc dosed ovariectomized C57B16 mouse; format: functional, Uterine epithelium
Estrogen receptor beta [4] = target: T1, Estrogen receptor beta (Homo sapiens, UniProt Q92731); experiment: Antagonist activity in ERbeta-transfected COS7 cells assessed as inhibition of E2-mediated PI(3)K activation; format: functional, cell-based; details: COS-7
T1 sequence (Q92731 whole entry): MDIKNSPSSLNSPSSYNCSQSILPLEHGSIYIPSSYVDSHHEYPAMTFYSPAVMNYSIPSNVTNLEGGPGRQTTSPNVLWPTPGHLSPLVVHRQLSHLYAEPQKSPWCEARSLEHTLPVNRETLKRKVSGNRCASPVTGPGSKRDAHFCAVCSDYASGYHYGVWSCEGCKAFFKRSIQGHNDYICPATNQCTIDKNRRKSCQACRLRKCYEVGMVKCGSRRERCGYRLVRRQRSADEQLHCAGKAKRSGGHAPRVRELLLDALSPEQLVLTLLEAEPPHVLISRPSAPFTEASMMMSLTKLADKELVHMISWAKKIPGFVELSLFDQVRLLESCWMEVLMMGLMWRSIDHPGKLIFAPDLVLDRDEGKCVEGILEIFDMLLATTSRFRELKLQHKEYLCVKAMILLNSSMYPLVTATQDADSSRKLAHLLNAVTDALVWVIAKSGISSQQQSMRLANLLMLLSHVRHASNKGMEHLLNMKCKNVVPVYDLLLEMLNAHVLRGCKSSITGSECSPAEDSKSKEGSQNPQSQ

[5] = target: T2, Estrogen receptor (Homo sapiens) (UniProt P03372); experiment: Antagonist activity in ERalpha-transfected COS7 cells assessed as inhibition of E2-mediated PI(3)K activation; format: functional, cell-based; details: COS-7
T2 sequence (whole entry): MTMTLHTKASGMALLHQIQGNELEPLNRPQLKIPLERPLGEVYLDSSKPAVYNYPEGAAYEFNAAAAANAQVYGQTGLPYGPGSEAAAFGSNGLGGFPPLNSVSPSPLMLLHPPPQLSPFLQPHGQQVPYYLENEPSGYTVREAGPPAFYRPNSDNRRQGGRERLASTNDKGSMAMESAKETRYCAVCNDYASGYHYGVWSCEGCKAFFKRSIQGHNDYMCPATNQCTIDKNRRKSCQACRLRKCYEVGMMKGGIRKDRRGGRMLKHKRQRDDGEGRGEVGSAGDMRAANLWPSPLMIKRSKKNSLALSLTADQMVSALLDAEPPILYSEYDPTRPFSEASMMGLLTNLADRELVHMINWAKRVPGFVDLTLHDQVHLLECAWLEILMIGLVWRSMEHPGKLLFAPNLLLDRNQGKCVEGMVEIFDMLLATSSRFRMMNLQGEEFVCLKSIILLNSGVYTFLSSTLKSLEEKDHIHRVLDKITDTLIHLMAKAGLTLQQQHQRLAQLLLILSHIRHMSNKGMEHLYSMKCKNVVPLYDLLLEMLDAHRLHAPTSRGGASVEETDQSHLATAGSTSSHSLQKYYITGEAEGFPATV

Mus musculus [6] = experiment: Inhibition of G1-induced GPR30-mediated epithelial uterine cell proliferation in sc dosed ovariectomized C57B16 mouse; format: functional, organism-based; details: Uterine epithelium
Estrogen receptor beta [7] = target: T1, Estrogen receptor beta; experiment: Binding affinity to ERbeta receptor in COS7 cells by competitive binding assay; format: cell-based, COS-7
Mus musculus [8] = experiment: Effect on uterine weight in ovariectomized C57B16 mouse at 0.1 to 2.4 nM, sc; format: functional, organism-based; details: Uterus

Row | SMILES | Activity (Mus musculus [1]) | Activity (Mus musculus [2]) | inhibition (INH) (Mus musculus [3]) | Activity (Estrogen receptor beta [4]) | Activity [5] | inhibition (Mus musculus [6]) | Ki (Estrogen receptor beta [7]) | Activity (Mus musculus [8])
1 | Brc1cc2c(cc1[C@@H]1Nc3ccccc3[C@@H]3C=CC[C@@H]31)OCO2 | inactive | inactive | 50% | inactive | inactive | Active; Dose-dependent effect | > 10 µM | –
2 | CC(=O)c1ccc2c(c1)[C@@H]1C=CC[C@@H]1[C@H](c1cc3c(cc1Br)OCO3)N2 | – | – | – | – | – | – | – | inactive
